Values of other authors in PMC10851415 (Biochemistry, 2024).

Tested on: influenza
Conditions: in vivo, po; cited from earlier work

SMILES: COC(=O)OCOc1c2n(ccc1=O)N([C@@H]1c3ccccc3SCc3c1ccc(F)c3F)[C@@H]1COCCN1C2=O [BXM, Baloxavir marboxil]
- reduce fever in an average of: 24 h
